Assay results as given in US6291527A (priority 1998, dated 2001).
Counter-ions that a name gives are not always drawn.

Tests used:
[1] = system: inflammatory exudate (IE); experiment: foreign body (sponge) method in the rat: inflammatory exudate volume; type: in vivo; conditions: for IE (inflammatory exudate) volume / % inhibition versus controls of IE: oral, 8 hours, listed as KGS; for IE (inflammatory exudate) volume: mean ± MSE, controls 5.15 ± 0.28
Description: (§1) These tests involved the use of 100 male CD strain rats (Charles River, Calco, LC, Italy) weighing 180±8 g. The animals were fasted for 12 hours (water ad libitum) before being used for the experiment.
(§2) The inflammatory reaction with the formation of exudate was induced by using sterilized polyester sponges (4×1.5×0.5 cm) soaked in carrageen dissolved at a 2% concentration in sterile physiological solution. The rats were anesthetized lightly with ether and two sponges per rat were implanted subcutaneously in a previously shaven dorsal area.
(§3) The sponges were removed 8 hours later after having sacrificed the animals by ether euthanasia, and immediately placed in large polyethylene 50 ml test tubes containing 10 ml of heparinized physiological solution. The test tubes were then subjected to centrifugation (1000 rotations; 15 minutes), followed by removal of the sponges and accurate measurement of the volume of the remaining fluid. Always using the Higgs et al. method, the acid lipids present in the fluid were extracted in chloroform with prior dilution in ethanol and acidification to pH 3. After complete evaporation of the chloroform, the remaining dry residue was dissolved in physiological solution and used for the immunoenzymatic assay of prostaglandin E2 (PGE2).
(§4) All the other reagents used for the tests were purchased from Merck-Bracco (Milan, Italy).

prostaglandin E2 (PGE2) = experiment: foreign body (sponge) method in the rat: PGE2 in the inflammatory exudate (immunoenzymatic assay); type: in vivo; conditions: for PGE2 concentration in the inflammatory exudate / % inhibition versus controls of PGE2: oral, 8 hours, listed as KGS; for PGE2 concentration in the inflammatory exudate: mean, controls 98.7 ± 4.7
Description: as §1, §2, §3, §4

[2] = animal studies of the three salts vs Ketoprofen acid and Ketoprofen sodium salt: distribution and kinetics; type: in vivo, experimental animals
Description: The three above mentioned Ketoprofen salts were compared with Ketoprofen acid and Ketoprofen sodium salt in animal studies.

carrageen edema = carrageen edema test in the rat (hind paw volume, plethysmometer); conditions: for evolution of paw volume (delta in ml) at 1st hour / evolution of paw volume (delta in ml) at 2nd hour / evolution of paw volume (delta in ml) at 3rd hour / evolution of paw volume (delta in ml) at 4th hour / evolution of paw volume (delta in ml) at 5th hour / evolution of paw volume (delta in ml) at 6th hour: mean ± MSE; for % inhibition vs controls (paw edema AUC): p < 0.001; for AUC (mean ± MSE) of increase in paw volume: paw volume (delta in ml) vs time (0 to 6 hours), controls 4.23 ± 0.26
[3] = rat, 0.5, 1, 2 and 4 mg/kg per os
[4] = rat, oral, 1 mg/kg, listed as KGS
[5] = rat, oral, 2 mg/kg, listed as KGS

Q: For `CC(C(=O)O)c1cccc(C(=O)c2ccccc2)c1` (stereo not shown) [Ketoprofen Glucosamine salt], which ED50 ([1]; Rattus norvegicus, po, 8 h, rat, 95% confidence limits KGS 1.802-2.381, KLS 2.334-3.094) is on record?
A: The ED50 was 2.09 mg/kg.

Q: What about the “control of the inflammatory response to sponge implantation” value [1, 3] of the same molecule?
A: The value was “controls the vasculo-exudative inflammatory response in a dose dependent manner”.

Q: What about the “IE (inflammatory exudate) volume” value ([1]; rat, 0.5 mg/kg) of the same molecule?
A: Its value is 3.87 ± 0.27 mL.

Q: What about the “% inhibition versus controls of IE” value ([1]; rat, 0.5 mg/kg) of the same molecule?
A: Its value is 24.8%.

Q: And the “IE (inflammatory exudate) volume” value ([1]; rat, 1 mg/kg)?
A: The value was 3.56 ± 0.28 mL.

Q: What about the “% inhibition versus controls of IE” value ([1]; rat, 1 mg/kg) of the same molecule?
A: The value was 30.9%.

Q: And the “IE (inflammatory exudate) volume” value ([1]; rat, 2 mg/kg)?
A: Its value is 2.53 ± 0.22 mL.

Q: What about the “% inhibition versus controls of IE” value ([1]; rat, 2 mg/kg) of the same molecule?
A: The value was 50.9%.

Q: What about the “IE (inflammatory exudate) volume” value ([1]; rat, 4 mg/kg) of the same molecule?
A: The value was 1.05 ± 0.09 mL.

Q: And the “% inhibition versus controls of IE” value ([1]; rat, 4 mg/kg)?
A: Its value is 79.6%.

Q: And the ED50 (prostaglandin E2 (PGE2); Rattus norvegicus, po, 8 h, rat, 95% confidence limits KGS 1.848-2.131, KLS 2.215-3.005)?
A: The ED50 was 1.99 mg/kg.

Q: And the “inhibition of PGE2 activity in exudates” value (prostaglandin E2 (PGE2); [3])?
A: The value was “singificant inhibition of PGE2 activity”.

Q: What about the “PGE2 concentration in the inflammatory exudate” value (from here on “PGE2 concentration”) (prostaglandin E2 (PGE2); rat, 0.5 mg/kg) of the same molecule?
A: The value was 67.6 ng/mL.

Q: What about the “% inhibition versus controls of PGE2” value (prostaglandin E2 (PGE2); rat, 0.5 mg/kg) of the same molecule?
A: Its value is 31.5%.

Q: What about the “PGE2 concentration” value (prostaglandin E2 (PGE2); rat, 1 mg/kg) of the same molecule?
A: The value was 60.5 ng/mL.

Q: What about the “% inhibition versus controls of PGE2” value (prostaglandin E2 (PGE2); rat, 1 mg/kg) of the same molecule?
A: Its value is 38.7%.

Q: What about the “PGE2 concentration” value (prostaglandin E2 (PGE2); rat, 2 mg/kg) of the same molecule?
A: Its value is 49.9 ng/mL.

Q: And the “% inhibition versus controls of PGE2” value (prostaglandin E2 (PGE2); rat, 2 mg/kg)?
A: The value was 49.4%.

Q: And the “PGE2 concentration” value (prostaglandin E2 (PGE2); rat, 4 mg/kg)?
A: The value was 24.9 ng/mL.

Q: And the “% inhibition versus controls of PGE2” value (prostaglandin E2 (PGE2); rat, 4 mg/kg)?
A: Its value is 74.8%.

Q: And the “active substance concentration in the inflamed site” value ([2]; injection, vs Ketoprofen sodium salt)?
A: Its value is “much greater than that observed with Ketoprofen sodium salt”.

Q: And the “kinetic parameters after oral administration” value ([2]; oral, vs Ketoprofen acid and Ketoprofen sodium salt)?
A: Its value is “significantly different”.

Q: What about the ED50 (carrageen edema; Rattus norvegicus, po, read-out: oral ED50 (carrageen edema, extrapolated from AUC), rat, oral, 95% conf. lim. KGS 0.733-1.474, KLS 1.198-1.567) of the same molecule?
A: Its ED50 is 1.1 mg/kg.

Q: What about the “anti-inflammatory / anti-edematogenic effect” value (carrageen edema; rat, oral) of the same molecule?
A: Its value is “dose-dependent”.

Q: And the “anti-inflammatory activity compared with Ketoprofen Lysine salt” value (carrageen edema; rat, oral 0.5, 1 and 2 mg/kg)?
A: Its value is “comparable”.

Q: And the “evolution of paw volume (delta in ml) at 1st hour” value (carrageen edema; rat, oral, 0.5 mg/kg, controls 0.40 ± 0.02, listed as KGS)?
A: Its value is 0.28 ± 0.02 mL.

Q: And the “evolution of paw volume (delta in ml) at 2nd hour” value (carrageen edema; rat, oral, 0.5 mg/kg, controls 0.71 ± 0.02, listed as KGS)?
A: The value was 0.51 ± 0.03 mL.

Q: What about the “evolution of paw volume (delta in ml) at 3rd hour” value (carrageen edema; rat, oral, 0.5 mg/kg, controls 0.87 ± 0.03, listed as KGS) of the same molecule?
A: The value was 0.62 ± 0.04 mL.

Q: And the “evolution of paw volume (delta in ml) at 4th hour” value (carrageen edema; rat, oral, 0.5 mg/kg, controls 0.93 ± 0.03, listed as KGS)?
A: Its value is 0.65 ± 0.04 mL.

Q: What about the “evolution of paw volume (delta in ml) at 5th hour” value (carrageen edema; rat, oral, 0.5 mg/kg, controls 0.90 ± 0.04, listed as KGS) of the same molecule?
A: Its value is 0.62 ± 0.05 mL.

Q: What about the “evolution of paw volume (delta in ml) at 6th hour” value (carrageen edema; rat, oral, 0.5 mg/kg, controls 0.84 ± 0.04, listed as KGS) of the same molecule?
A: The value was 0.56 ± 0.05 mL.

Q: What about the “% inhibition vs controls (paw edema AUC)” value (carrageen edema; rat, oral, 0.5 mg/kg) of the same molecule?
A: The value was 30%.

Q: And the “% inhibition vs controls (paw edema AUC)” value (carrageen edema; rat, oral, 0.5 mg/kg, listed as KGS)?
A: The value was 30.0%.

Q: What about the “AUC (mean ± MSE) of increase in paw volume” value (from here on “AUC (mean ± MSE) of increase”) (carrageen edema; rat, oral, 0.5 mg/kg, listed as KGS, 0.5 mg/kg) of the same molecule?
A: Its value is 2.96 ± 0.15.

Q: What about the “evolution of paw volume (delta in ml) at 1st hour” value (carrageen edema; [4]) of the same molecule?
A: The value was 0.23 ± 0.01 mL.

Q: And the “evolution of paw volume (delta in ml) at 2nd hour” value (carrageen edema; [4])?
A: Its value is 0.39 ± 0.02 mL.

Q: And the “evolution of paw volume (delta in ml) at 3rd hour” value (carrageen edema; [4])?
A: Its value is 0.46 ± 0.02 mL.

Q: And the “evolution of paw volume (delta in ml) at 4th hour” value (carrageen edema; [4])?
A: The value was 0.48 ± 0.02 mL.

Q: What about the “evolution of paw volume (delta in ml) at 5th hour” value (carrageen edema; [4]) of the same molecule?
A: The value was 0.45 ± 0.02 mL.

Q: What about the “evolution of paw volume (delta in ml) at 6th hour” value (carrageen edema; [4]) of the same molecule?
A: Its value is 0.39 ± 0.03 mL.

Q: What about the “% inhibition vs controls (paw edema AUC)” value (carrageen edema; rat, oral, 1 mg/kg) of the same molecule?
A: Its value is 48%.

Q: And the “% inhibition vs controls (paw edema AUC)” value (carrageen edema; [4])?
A: Its value is 48.0%.

Q: And the “AUC (mean ± MSE) of increase” value (carrageen edema; rat, oral, 1 mg/kg, listed as KGS, 1 mg/kg)?
A: Its value is 2.20 ± 0.13.

Q: And the “evolution of paw volume (delta in ml) at 1st hour” value (carrageen edema; [5])?
A: Its value is 0.11 ± 0.02 mL.

Q: And the “evolution of paw volume (delta in ml) at 2nd hour” value (carrageen edema; [5])?
A: Its value is 0.20 ± 0.02 mL.

Q: And the “evolution of paw volume (delta in ml) at 3rd hour” value (carrageen edema; [5])?
A: Its value is 0.26 ± 0.03 mL.

Q: What about the “evolution of paw volume (delta in ml) at 4th hour” value (carrageen edema; [5]) of the same molecule?
A: The value was 0.28 ± 0.03 mL.

Q: And the “evolution of paw volume (delta in ml) at 5th hour” value (carrageen edema; [5])?
A: The value was 0.25 ± 0.03 mL.

Q: And the “evolution of paw volume (delta in ml) at 6th hour” value (carrageen edema; [5])?
A: Its value is 0.16 ± 0.02 mL.

Q: And the “% inhibition vs controls (paw edema AUC)” value (carrageen edema; rat, oral, 2 mg/kg)?
A: The value was 72%.

Q: What about the “% inhibition vs controls (paw edema AUC)” value (carrageen edema; [5]) of the same molecule?
A: Its value is 72.1%.

Q: What about the “AUC (mean ± MSE) of increase” value (carrageen edema; rat, oral, 2 mg/kg, listed as KGS, 2 mg/kg) of the same molecule?
A: The value was 1.18 ± 0.06.
